Test system: HEK293 SuperTOPFlash reporter cells, Wnt promoter
Assay: HEK CELL Wnt Assay (luciferase reporter)
Assay type: cell-based
Details: @ >10,000 nM
Experimental: In order to determine the effect of the compounds of Formula (I) on Wnt inhibition, an in vitro assay using HEK293 SuperTOPFlash reporter cells, with the Wnt promoter driving a luciferase reporter gene, were utilized. 40,000 HEK293 SuperTOPFlash reporter cells were seeded, per well, in a 48 well plate for 24 hours, prior to administration of serial dilutions of the compound of Formula (I) to individual wells. Serial dilutions ranging from […] to 1 nM of the compound of Formula (I) were added with or without 50 ng/mL Wnt3a (Time Biosciences) and allowed to incubate with the reporter cells for 18 hours. Reporter cells with no treatment were used as negative control.

Row | SMILES | HEK CELL Wnt inhibition
1 | N#Cc1ccc2c(c1)[nH]c(=O)n2[C@H]1C[C@H](c2nc3c(c(=O)[nH]2)CSCC3)C1 [Compound 2, 2-oxo-1-((1r,3r)-3-(4-oxo-3,5,7,8-tetrahydro-4H-thiopyrano[4,3-d]pyrimidin-2-yl)cyclobutyl)-2,3-dihydro-1H-benzo[d]imidazole-5-carbonitrile] | 60% inhibition @ >10,000 nM

Same assay, conditions: serial dilutions, with or without 50 ng/mL Wnt3a; 18 h

Row | SMILES | IC50 [nM]
2 | O=c1[nH]c(/C=C/c2ccc(C(F)(F)F)c(B(O)O)c2)nc2c1CSCC2 [Compound 5, (E)-(5-(2-(4-oxo-3,5,7,8-tetrahydro-4H-thiopyrano[4,3-d]pyrimidin-2-yl)vinyl)-2-(trifluoromethyl)phenyl)boronic acid] | 5000
3 | O=c1[nH]c(-c2ccc(-c3ccc(Br)cc3)cc2)nc2c1CSCC2 | 100

Target: T1, Tankyrase 2 (TNKS2) (Homo sapiens, UniProt Q9H2K2)
T1 sequence (Q9H2K2 1-1166): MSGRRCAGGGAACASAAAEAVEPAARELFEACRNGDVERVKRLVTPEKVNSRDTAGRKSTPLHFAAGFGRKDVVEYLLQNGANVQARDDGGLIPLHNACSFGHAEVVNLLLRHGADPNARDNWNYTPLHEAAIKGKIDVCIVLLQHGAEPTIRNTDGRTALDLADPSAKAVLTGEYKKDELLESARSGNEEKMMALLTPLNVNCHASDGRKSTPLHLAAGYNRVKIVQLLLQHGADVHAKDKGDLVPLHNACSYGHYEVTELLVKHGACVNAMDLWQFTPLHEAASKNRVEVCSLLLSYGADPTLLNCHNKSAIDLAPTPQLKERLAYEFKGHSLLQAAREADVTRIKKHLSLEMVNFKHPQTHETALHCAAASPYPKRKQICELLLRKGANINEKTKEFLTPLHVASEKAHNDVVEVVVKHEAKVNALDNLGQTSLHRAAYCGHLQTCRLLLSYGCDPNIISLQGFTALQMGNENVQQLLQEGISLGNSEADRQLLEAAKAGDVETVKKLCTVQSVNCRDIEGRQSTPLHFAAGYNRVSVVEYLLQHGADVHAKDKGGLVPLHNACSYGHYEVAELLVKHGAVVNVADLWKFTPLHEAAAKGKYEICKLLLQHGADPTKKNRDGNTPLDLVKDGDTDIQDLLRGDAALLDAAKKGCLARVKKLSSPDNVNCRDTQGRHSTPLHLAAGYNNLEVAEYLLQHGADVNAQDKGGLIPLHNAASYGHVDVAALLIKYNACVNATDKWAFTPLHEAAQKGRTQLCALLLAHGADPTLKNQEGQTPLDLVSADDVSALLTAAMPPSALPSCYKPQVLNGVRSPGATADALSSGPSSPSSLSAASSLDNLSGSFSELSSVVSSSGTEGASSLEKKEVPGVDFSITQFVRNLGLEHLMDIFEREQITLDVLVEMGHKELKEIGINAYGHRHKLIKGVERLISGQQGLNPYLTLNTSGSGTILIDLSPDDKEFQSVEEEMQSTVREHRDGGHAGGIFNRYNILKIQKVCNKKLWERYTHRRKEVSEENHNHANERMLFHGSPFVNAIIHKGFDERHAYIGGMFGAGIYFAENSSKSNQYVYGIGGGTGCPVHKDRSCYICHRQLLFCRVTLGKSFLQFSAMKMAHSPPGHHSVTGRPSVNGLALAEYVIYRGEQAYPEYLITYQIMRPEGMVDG
Assay: TNK2 Binding Assay (Tankyrase 2 ribosylation, chemiluminescence)
Assay type: biochemical
Details: not given
Experimental: Tankyrase 2 assay (n=3) was performed with the following steps: step 1, coating a 96-well plate with 50 μL/well of histone solution; step 2, conducting ribosylation reaction; and step 3, detection.
Step 1: Coating a 96-Well Plate with 50 μL/Well of Histone Solution.
A 5× histone mixture was diluted 1:5 with PBS to make a 1× histone in PBS mixture. 50 μL of the histone mixture was added to each well and incubated at 4° C. overnight. The plate was washed three times using 200 μL PBST buffer (1×PBS containing 0.05% Tween*20 (polysorbate 20) per well. The plate was tapped onto a clean paper towel to remove the liquid. The wells were blocked by adding 200 μL of blocking buffer 3 to each well. The plate was incubated at room temperature for at least 90 minutes. The plate was washed three times with 200 μL PBST buffer. The plate was tapped onto a clean paper towel to remove the liquid.
A fresh solution of 10 mM DTT in water was prepared.
A master mix was prepared and delivered to each well (25 μL/well). Master mix delivered to each well: (2.5 μL of 10×PARP assay buffer (purchased from BPS Bioscience)+2.5 μL of PARP substrate mixture 2+17.5 μL of water+2.5 μL of 10 mM fresh DTT). The concentration of DTT in the master mix was 1 mM. 25 μL of master mix was added to each well.
1×PARP buffer with DTT was prepared. 10×PARP assay buffer was diluted to 1×PARP assay buffer containing DTT by adding 1 volume of 10×PARP assay buffer+1 volume of 10 mM DTT+8 volumes of water. The concentration of DTT in the 1×PARP assay buffer was 1 mM.
5 μL of a test inhibitor was added to each well labeled as “Test Inhibitor.” For the “Positive Control,” the PARP inhibitor, XAV939, was used. For the negative control, no inhibitor is added to the assay mix.
The Tankyrase 2 (TNKS2) enzyme on ice was thawed. The tube containing the enzyme was spun briefly to recover the full content of the tube. The amount of TNKS2 enzyme required for the assay was calculated and the enzyme was diluted to 0.5 ng/μL with 1×PARP assay buffer with DTT. 16) The final concentration of TNKS2 enzyme in the assay was 2 nM. The reaction was initiated by adding 10 μL of diluted TNKS2 enzyme to each well designated “Positive Control” and “Test Inhibitor.” To each well designated as “Blank,” 10 μL of 1×PARP assay buffer with DTT was added. The plate was incubated at room temperature for 1 hour. The plate was washed three times with 100 μL of PBST buffer and the plate was tapped onto a clean paper towel.
1) Streptavidin-HRP was diluted 1:50 in Blocking buffer (purchased from BPS Bioscience) 3.50 μL of diluted Streptavidin-RP was added to each well and incubated for 30 minutes at room temperature. The plate was washed three times with 100 μL of PBST buffer and tapped onto a clean paper towel. Just before use, 1 volume of ELISA ECL Substrate A and 1 volume of ELISA ECL Substrate B were mixed on ice; and 100 μL was added to each well. Immediately, the plate was read in a luminometer or microtiter-plate reader capable of reading chemiluminescence. The “Blank” value was subtracted from all other values.

Row | SMILES | IC50 [nM]
4 | O=c1[nH]c(N2CCN(c3ccc(B(O)O)cc3)CC2)nc2c1CSCC2 [Compound 41, (4-(4-(4-oxo-3,5,7,8-tetrahydro-4H-thiopyrano[4,3-d]pyrimidin-2-yl)piperazin-1-yl)phenyl)boronic acid] | 8.7
5 | COC(=O)NCCOC(C)(C)c1ccc(-c2nc3c(c(=O)[nH]2)CSCC3)cc1OC [Compound 34, methyl (2-((2-(2-methoxy-4-(4-oxo-3,5,7,8-tetrahydro-4H-thiopyrano[4,3-d]pyrimidin-2-yl)phenyl)propan-2-yl)oxy)ethyl)carbamate] | 164
6 | O=c1[nH]c(-c2ccc(B(O)O)cc2O)nc2c1CSCC2 [Compound 31, (3-hydroxy-4-(4-oxo-3,5,7,8-tetrahydro-4H-thiopyrano[4,3-d]pyrimidin-2-yl)phenyl)boronic acid] | 3530
7 | N#Cc1cc(B(O)O)ccc1-c1nc2c(c(=O)[nH]1)CSCC2 [Compound 37, (3-cyano-4-(4-oxo-3,5,7,8-tetrahydro-4H-thiopyrano[4,3-d]pyrimidin-2-yl)phenyl)boronic acid] | 16
8 | O=c1[nH]c(-c2ccc(B(O)O)cc2Cl)nc2c1CSCC2 [Compound 40, (3-chloro-4-(4-oxo-3,5,7,8-tetrahydro-4H-thiopyrano[4,3-d]pyrimidin-2-yl)phenyl)boronic acid] | 443
9 | O=c1[nH]c(N2CCN(c3c(F)cc(OCCO)cc3F)CC2)nc2c1CSCC2 [Compound 42, 2-(4-(2,6-difluoro-4-(2-hydroxyethoxy)phenyl)piperazin-1-yl)-3,5,7,8-tetrahydro-4H-thiopyrano[4,3-d]pyrimidin-4-one] | 9.7
10 | COC(=O)NCCOC(C)(C)c1ccc(-c2nc3c(c(=O)[nH]2)CSCC3)cc1C [Compound 35, methyl (2-((2-(2-methyl-4-(4-oxo-3,5,7,8-tetrahydro-4H-thiopyrano[4,3-d]pyrimidin-2-yl)phenyl)propan-2-yl)oxy)ethyl)carbamate] | 13
11 | COC(=O)NCCOC(C)(C)c1ccc(-c2nc3c(c(=O)[nH]2)CSCC3)cc1C#N [Compound 39, methyl (2-((2-(2-cyano-4-(4-oxo-3,5,7,8-tetrahydro-4H-thiopyrano[4,3-d]pyrimidin-2-yl)phenyl)propan-2-yl)oxy)ethyl)carbamate] | 650
12 | O=c1[nH]c(-c2ccc(-c3ccc(Br)nc3)c(F)c2)nc2c1CSCC2 [Compound 20, 2-(4-(6-bromopyridin-3-yl)-3-fluorophenyl)-3,5,7,8-tetrahydro-4H-thiopyrano[4,3-d]pyrimidin-4-one] | 4
13 | O=c1[nH]c(-c2ccc(B(O)O)c(O)c2)nc2c1CSCC2 [Compound 30, (2-hydroxy-4-(4-oxo-3,5,7,8-tetrahydro-4H-thiopyrano[4,3-d]pyrimidin-2-yl)phenyl)boronic acid] | 20
14 | N#Cc1cc(-c2ccc(B(O)O)cc2)ccc1-c1nc2c(c(=O)[nH]1)CSCC2 [Compound 36, (3′-cyano-4′-(4-oxo-3,5,7,8-tetrahydro-4H-thiopyrano[4,3-d]pyrimidin-2-yl)-[1,1′-biphenyl]-4-yl)boronic acid] | 29
15 | COc1cc(-c2nc3c(c(=O)[nH]2)CSCC3)ccc1B(O)O [Compound 32, (2-methoxy-4-(4-oxo-3,5,7,8-tetrahydro-4H-thiopyrano[4,3-d]pyrimidin-2-yl)phenyl)boronic acid] | 111
16 | COC(=O)NCCOC(C)(C)c1ccc(-c2nc3c(c(=O)[nH]2)CSCC3)cc1O [Compound 33, methyl (2-((2-(2-hydroxy-4-(4-oxo-3,5,7,8-tetrahydro-4H-thiopyrano[4,3-d]pyrimidin-2-yl)phenyl)propan-2-yl)oxy)ethyl)carbamate] | 12
17 | CC1(C)OB(O)c2ccc(-c3nc4c(c(=O)[nH]3)CSCC4)cc21 [Compound 44, 2-(1-hydroxy-3,3-dimethyl-1,3-dihydrobenzo[c][1,2]oxaborol-5-yl)-3,5,7,8-tetrahydro-4H-thiopyrano[4,3-d]pyrimidin-4-one] | 630
18 | CC(C)(OCCO)c1c(F)cc(-c2nc3c(c(=O)[nH]2)CSCC3)cc1F [Compound 15, 2-(3,5-difluoro-4-(2-(2-hydroxyethoxy)propan-2-yl)phenyl)-3,5,7,8-tetrahydro-4H-thiopyrano[4,3-d]pyrimidin-4-one] | 90
19 | O=c1[nH]c(-c2ccc(-c3ccnc(Br)c3)cc2)nc2c1CSCC2 [Compound 23, 2-(4-(2-bromopyridin-4-yl)phenyl)-3,5,7,8-tetrahydro-4H-thiopyrano[4,3-d]pyrimidin-4-one] | 14
20 | COC(=O)NCCOC(C)(C)c1ccc(-c2nc3c(c(=O)[nH]2)CSCC3)c(C#N)c1 [Compound 38, methyl (2-((2-(3-cyano-4-(4-oxo-3,5,7,8-tetrahydro-4H-thiopyrano[4,3-d]pyrimidin-2-yl)phenyl)propan-2-yl)oxy)ethyl)carbamate] | 72

From patent US20260356860A1, “2-SUBSTITUTED 3,4A,5,7,8,8A-HEXAHYDRO-4H-THIOPYRANO[4,3-DJPYRIMIDIN-4-ONES FOR WOUND TREATMENT” (priority 2022, published 2026)
